Test results reported in patent publication US8937065B2, “Compositions and methods for modulating a kinase” (Clevexel Pharma, priority 2011, dated 2015).
In brackets after ≈: the same amount, converted by molar mass.

Experiments:
hERG = hERG (Homo sapiens, UniProt Q12809); test: hERG IC50
Daudi cells [1] = test: Daudi CTG assay (Daudi proliferation, 72 hr, Cell Titer Glo); type: cell-based; details: Homo sapiens
Method: The compounds of the invention were tested on Daudi proliferation according to the procedure in Example 4 (for Daudi cells): Proliferation of RS4; 11, Ramos, Namalwa, RL, Molt-4 and Daudi cells. The compounds of the invention were tested on Daudi proliferation (72 hr), 3 fold dilution, and 9 points in duplicates. The top concentration for compounds of the invention was 10 uM; reference compound 7A top concentration was 10 uM; and Paclitaxel was 500 nM. Cell viability was determined using the Cell Titer Glo (CTG) reagent and detected by EnVision. EC50s were calculated by Prism 5.
The CellTiter-Glo™ Luminescent Cell Viability Assay uses ATP, a required co-factor of the luciferase reaction, as an indicator of metabolically active cells. The enzyme luciferase acts on luciferin in the presence of Mg^2+and ATP to produce oxyluciferin and to release energy in the form of luminescence. Since the luciferase reaction requires ATP, the luminescence produced is proportional to the amount of ATP present, an indicator of cellular metabolic activity.

Daudi cells [2] = test: Proliferation of Daudi cells (Cell Titer-Glo, 96 h); details: Homo sapiens, B cells, outcome-based, read-out: IC50 Proliferation Daudi cells (Burkitt's Lymphoma)
Method: Growth inhibitory activity against the human tumor cell lines, RS4; 11 and Daudi was determined using Promega's Cell Titer-Glo® assay. The human tumor cells were placed in a 96-well microculture plate (Costar white, flat bottom #3917) in a total volume of 90 μL/well. After 24 hours of incubation in a humidified incubator at 37° C. with 5% CO2 and 95% air, […] serially diluted test agents in growth medium were added to each well. After 96 total hours of culture in a CO2 incubator, the plated cells and Cell Titer-Glo® (Promega # G7571) reagents were brought to room temperature to equilibrate for 30 minutes. 100 μL of Cell Titer-Glo® reagent was added to each well. The plate was shaken for 2 minutes and then left to equilibrate for 10 minutes before reading luminescence on the Tecan GENios microplate reader.
Percent inhibition of cell growth was calculated relative to untreated control wells. All tests were performed in duplicate at each concentration level. The IC50 value for the test agents was estimated using Prism 3.03 by curve-fitting the data using the following four parameter-logistic equation: […]

CYP = CYP inhibition; type: in vitro ADME
Caco-2 = Caco-2 permeability and efflux; type: in vitro ADME
Protein binding = type: in vitro ADME
Molt-4 cells = test: Proliferation of Molt-4 cells (Cell Titer-Glo); details: Homo sapiens, T cells, outcome-based, read-out: IC50 Proliferation Molt-4 cells (ALL)
[3] = tested on: IL-2-stimulated STAT5 activity in CTLL-2 cells; test: IL-2-stimulated STAT5 activity in CTLL-2 cells (Irf1-bla CTLL-2); type: cell-based; details: Mus musculus, mCTLL-2, IL-2 stimulated, read-out: IC50 T cells mechanism-based: mCTLL-2 IL-2 Stimulated STAT5 activity
Method: Mechanism-based inhibition assays using compound 7A (Table 1) were performed using GeneBLAzer® Technology (Invitrogen Corporation), according to manufacturer specifications. Briefly, GeneBLAzer® Technology uses a mammalian-optimized Beta-lactamase reporter gene (bla) combined with a FRET-enabled substrate to provide reliable and sensitive detection in intact cells. Cells were loaded with an engineered fluorescent substrate containing two fluorophores, coumarin and fluorescein. Without bla expression, the substrate molecule remains intact. In this state, excitation of the coumarin results in fluorescence resonance energy transfer to the fluorescein moiety and emission of green light. […] Excitation of the coumarin in the presence of Beta-lactamase activity results in a blue fluorescence signal. […]
An activator assay screen was run to obtain the EC80 concentration of the known activator to add in step 3. • 1. […] 4 μL of the EC80 concentration of activator, as determined in an Activator assay, was added to all wells containing compound and known inhibitor to bring the final assay volume to 40 μL. • 4. […] The assay plate was read on a fluorescence plate reader (Tecan Safire) and the data is analyzed. […]
Irf1-bla CTLL-2 cells were thawed and prepared as described above for the Activator Screen. […] The plate was read on a fluorescence plate reader.

hLM T½ (stability) = type: in vitro ADME; details: human, liver microsomes
Solubility, turbidity = type: physicochemical; details: kinetic from dmso stock

Sequence of hERG (Q12809 whole entry): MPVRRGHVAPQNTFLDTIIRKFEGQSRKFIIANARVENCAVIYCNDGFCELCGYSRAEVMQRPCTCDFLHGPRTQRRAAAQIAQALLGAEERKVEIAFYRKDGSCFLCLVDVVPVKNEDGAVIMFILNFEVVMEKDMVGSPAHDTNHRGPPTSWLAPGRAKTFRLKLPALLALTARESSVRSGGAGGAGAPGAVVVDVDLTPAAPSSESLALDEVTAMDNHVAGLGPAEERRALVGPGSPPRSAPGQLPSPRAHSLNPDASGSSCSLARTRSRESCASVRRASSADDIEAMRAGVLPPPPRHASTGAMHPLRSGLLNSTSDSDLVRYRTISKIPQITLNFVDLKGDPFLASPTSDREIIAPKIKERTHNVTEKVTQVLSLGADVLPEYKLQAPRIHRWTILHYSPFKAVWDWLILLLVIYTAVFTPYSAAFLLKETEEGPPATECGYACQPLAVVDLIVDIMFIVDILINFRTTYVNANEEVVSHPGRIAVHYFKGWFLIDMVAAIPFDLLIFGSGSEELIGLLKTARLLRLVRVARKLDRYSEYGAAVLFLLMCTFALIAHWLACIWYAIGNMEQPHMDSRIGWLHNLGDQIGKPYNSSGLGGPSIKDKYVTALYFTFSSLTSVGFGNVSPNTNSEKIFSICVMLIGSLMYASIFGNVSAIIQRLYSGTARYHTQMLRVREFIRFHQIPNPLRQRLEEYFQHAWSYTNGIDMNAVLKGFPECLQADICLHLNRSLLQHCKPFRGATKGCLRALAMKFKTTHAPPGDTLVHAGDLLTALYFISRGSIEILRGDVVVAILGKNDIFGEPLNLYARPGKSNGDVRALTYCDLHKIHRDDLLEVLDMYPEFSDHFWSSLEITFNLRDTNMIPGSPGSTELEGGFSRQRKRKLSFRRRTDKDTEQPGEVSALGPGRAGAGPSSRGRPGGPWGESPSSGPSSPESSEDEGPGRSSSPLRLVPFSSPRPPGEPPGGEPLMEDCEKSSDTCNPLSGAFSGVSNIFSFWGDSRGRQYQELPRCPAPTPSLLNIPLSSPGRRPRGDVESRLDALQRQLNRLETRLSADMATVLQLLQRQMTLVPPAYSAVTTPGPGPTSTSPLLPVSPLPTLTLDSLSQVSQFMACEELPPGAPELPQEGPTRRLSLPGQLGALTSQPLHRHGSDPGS

SMILES: O=C(CN1CCOCC1)Nc1cccc(-c2nc(-c3c[nH]c(C(=O)N4CCCC4)c3)cs2)c1 [7A, 2-morpholino-N-(3-(4-(5-(pyrrolidine-1-carbonyl)-1H-pyrrol-3-yl)thiazol-2-yl)phenyl)acetamide]
- IC50 (hERG): > 10000 nM
- IC50 (Daudi cells [1]; Daudi, read-out: Daudi CTG assay IC50, historical data): 122 nM
- IC50 (Daudi cells [1]; Daudi proliferation 72 hr, control compounds, read-out: Daudi CTG assay control IC50): 102 nM
- IC50 (Daudi cells [2]): 159 nM
- CYP inhibition (CYP): >10
- Caco-2 Eflux (Caco-2; Caco-2): no
- Caco-2 Papp A-B (×10^6/cm · s^−1) (Caco-2; Caco-2, A-B): 24 ×10^6/cm · s^−1
- fraction unbound (Protein binding): 0.02
- IC50 (Molt-4 cells): 35000 nM
- IC50 [3]: 6200 nM
- half-life (hLM T½ (stability)): 36 min
- solubility (Solubility, turbidity): 60 to 80 µM (≈ 27.9 to 37.2 µg/mL)
